The source of these data is patent US9643967B2, “Pyrrolo[3,2-c]pyridine derivatives as TLR inhibitors” (TAKEDA PHARMACEUTICAL COMPANY LIMITED, priority 2013, dated 2017).

Like-named read-outs stand apart in the source and are kept apart here.

The target of this experiment is T1, mTLR9 (Mus musculus, UniProt Q9EQU3).
T1 construct: Splenocytes isolated from male C57/BL6 mice; from tissue; host or cells: splenocytes from the spleen of male C57BL/6 mice
T1 sequence (Q9EQU3 26-1032): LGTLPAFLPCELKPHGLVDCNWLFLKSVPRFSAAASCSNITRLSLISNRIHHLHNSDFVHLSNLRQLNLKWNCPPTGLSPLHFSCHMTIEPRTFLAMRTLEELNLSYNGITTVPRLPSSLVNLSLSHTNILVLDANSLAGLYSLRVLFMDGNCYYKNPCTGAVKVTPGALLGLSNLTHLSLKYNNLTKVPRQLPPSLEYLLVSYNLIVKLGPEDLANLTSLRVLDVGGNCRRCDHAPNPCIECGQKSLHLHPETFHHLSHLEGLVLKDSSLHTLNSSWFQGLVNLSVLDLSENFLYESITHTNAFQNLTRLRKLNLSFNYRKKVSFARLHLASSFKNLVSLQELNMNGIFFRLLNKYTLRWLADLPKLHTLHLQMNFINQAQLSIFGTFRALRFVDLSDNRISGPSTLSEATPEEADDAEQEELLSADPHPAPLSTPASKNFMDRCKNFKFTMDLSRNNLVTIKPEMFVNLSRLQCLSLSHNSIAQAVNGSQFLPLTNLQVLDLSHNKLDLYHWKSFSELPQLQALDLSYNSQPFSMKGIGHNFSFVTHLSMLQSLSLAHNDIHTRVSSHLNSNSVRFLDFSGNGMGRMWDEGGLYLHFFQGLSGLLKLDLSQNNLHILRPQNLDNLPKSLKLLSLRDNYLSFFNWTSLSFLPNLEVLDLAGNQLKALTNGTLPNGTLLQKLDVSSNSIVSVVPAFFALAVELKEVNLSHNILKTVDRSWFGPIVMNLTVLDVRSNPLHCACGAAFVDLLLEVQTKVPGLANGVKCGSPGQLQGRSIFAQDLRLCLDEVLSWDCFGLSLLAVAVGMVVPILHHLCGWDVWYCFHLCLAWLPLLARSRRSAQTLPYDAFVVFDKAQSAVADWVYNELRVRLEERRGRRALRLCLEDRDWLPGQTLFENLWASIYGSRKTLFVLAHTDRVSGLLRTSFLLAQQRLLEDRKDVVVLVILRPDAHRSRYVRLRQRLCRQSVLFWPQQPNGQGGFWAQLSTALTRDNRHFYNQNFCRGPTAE
Kind of experiment: mTLR9 antagonism (IL-6 and TNF-α release assay) in mouse splenocytes, CpG ODN-2006 stimulated. Format: cell-based. To be noted: 1 μM, mouse splenocytes. The source says:
mTLR9 and mTLR7 Antagonism (Cytokine Release Assay) in Mouse Splenocytes
TLR7 ligand R0006 (IDT, 5′-rU*rU*rG*rU*rU*rG*rU*rU*rG*rU*rU*rG*rU*rU*rG*rU*rU*rG*rU*rU-3′ (SEQ ID NO:1)), Liposomal transfection reagent—DOTAP (Roche, Cat. No. 11202375001), TLR9 ligand CpG ODN2006 (Sequence: T*C*G*T*C*G*T*T*T*T*G*T*C*G*T*T*T*T*G*T*C*G*T*T; *=phosphorothioate (SEQ ID NO:2)) DMSO (Sigma, D2650), RPMI Powder (Sigma, R6504), Fetal Bovine Serum (Gibco, 10270), Dulbecco's Phosphate Buffered Saline (Sigma, D1408), 96 well plate (Flat bottom, Costar 3599), ELISA kit for IL-6 (EBioscience, 88-7064-77 and TNFa (EBioscience, 88-7346-88), MACS Buffer (AutoMACS Rinsing Solution (Miltenyl Biotec, 130-091-222)+0.05% BSA), RBC lysis buffer (0.85% NH4Cl), 40 μm cell strainer (BD Falcon, 352340) Method: A. Isolation of Mouse Splenocytes
Mouse spleen was isolated from C57BL6 mouse and stored in 1× chilled PBS buffer until further processed. Spleen was transferred to a sterile petriplate and chopped in to 5-6 pieces in presence of MACS buffer (100 μl) with the help of fresh surgical blade and crushed with flat plunger of a sterile syringe. A uniform suspension was prepared by passing cells through a 40 μm cell strainer. Cells were centrifuged at 450×g for 5 minutes at 4° C., supernatant was discarded and pellet dislodged gently, resuspended in 2 ml of pre-warmed (37° C.) RBC lysis buffer at room temperature with continuous gentle mixing with 1 ml pipette. Lysis buffer was neutralized with 12 ml of chilled MACS buffer and cells were passed through 40 μm cell strainer. Cell suspension was collected in 15 ml MACS buffer and centrifuged at 450×g for 5 minutes at 4° C. Pellet was resuspended in 15 ml MACS buffer and centrifuged at 400×g for 5 minutes. Cells were resuspended in 10 ml of RPMI complete medium and viability was estimated by Trypan blue method.
mTLR9 Antagonism (IL-6 and TNF-α Release Assay):
500 μM stock of CpG ODN-2006 was prepared in sterile, endotoxin-free water. Dilutions of 10× concentrations of NCEs were prepared in incomplete RPMI media, maintaining a final DMSO concentration of 0.3%. NCEs were added in a concentration range of 30 μM to 1 nM in respective wells of assay plate, assay medium containing 0.3% DMSO were added to control wells. 0.2 million splenocytes were added to all the wells and incubated at 37° C. in 5% CO2 incubator for 30 minutes. 1 μg/ml of respective agonist was added to all the wells except those were assigned as negative controls and mixed thoroughly. Incomplete RPMI was added to negative control wells and incubated overnight at 37° C./5% CO2. The plate was centrifuged at 450×g for 5 minutes at room temperature and the supernatant was collected. ELISA was performed as per manufacturer's protocol. S/B Ratio, % Activity and % Inhibition was calculated using MS Excel. IC50 and inhibition curve was generated using Graph Pad Prism.

The mark [1] stands for this setting: IL-6 release, read-out: mTLR9 inhibitory activity (% at 1 μM), IL-6.
The mark [2] stands for this setting: TNF-α release, read-out: mTLR9 inhibitory activity (% at 1 μM), TNF-α.

`CC(C)N1CCN(c2ccc(-c3nccc4[nH]c(CCN5CCOCC5)cc34)cc2)CC1` [Example B1, 4-[2-[4-[4-(4-isopropylpiperazin-1-yl)phenyl]-1H-pyrrolo[3,2-c]pyridin-2-yl]ethyl]morpholine]: the inhibition at 1 µM reads like this: under setting [1], 100%; under setting [2], 100%.
For `Cc1cc2[nH]c(CN3CCOCC3)cc2c(-c2ccc(N3CCN(C(C)C)CC3)cc2)n1` [Example A4, 4-[[4-[4-[4-isopropylpiperazin-1-yl)phenyl]-6-methyl-1H-pyrrolo[3,2-c]pyridin-2-yl]methyl] morpholine], the inhibition at 1 µM is, setting by setting: under setting [1], 100%; under setting [2], 100%.
As to `CN1CCN(c2ccc(-c3nccc4[nH]c(CN5CCC(F)CC5)cc34)cc2)CC1` [Example A25, 2-[(4-fluoro-1-piperidyl)methyl]-4-[4-(4-methylpiperazin-1-yl)phenyl] - 1H-pyrrolo[3,2-c]pyridine], the inhibition at 1 µM is 100% under setting [1] and 100% under setting [2].
For the molecule `c1cc2[nH]c(CN3CCOCC3)cc2c(-c2ccc(OC3CCNCC3)cc2)n1` [Example A49, 4-[[4-[4-(4-piperidyloxy)phenyl]-1H-pyrrolo[3,2-c]pyridin-2-yl]methyl]morpholine], the inhibition at 1 µM turned out to be 65% under setting [1] and 15% under setting [2].
For `Cc1cc2[nH]c(CCN3CCCCC3)cc2c(-c2ccc(N3CCN(C(C)C)CC3)cc2)n1` [Example B5, 4-[4-(4-isopropylpiperazin-1-yl)phenyl]-6-methyl-2-[2-(1-piperidyl)ethyl]-1H-pyrrolo[3,2-c]pyridine], the inhibition at 1 µM under setting [2] turned out to be 100%.
Take `CC(C)N1CCN(c2ccc(-c3nccc4[nH]c(CN5CCC[C@@H]5C(=O)O)cc34)cc2)CC1` [Example A74, (2R)-1-[[4-[4-(4-isopropylpiperazin-1-yl)phenyl]-1H-pyrrolo[3,2-c]pyridin-2-yl]methyl]pyrrolidine-2-carboxylic acid]: under setting [2], the inhibition at 1 µM turned out to be 95%.
Regarding `CC(C)N1CC=C(c2ccc(-c3nccc4[nH]c(CN5CCOCC5)cc34)cn2)CC1` [Example A52, 4-[[4-[6-(1-isopropyl-3,6-dihydro-2H-pyridin-4-yl)-3-pyridyl]-1H-pyrrolo[3,2-c]pyridin-2-yl]methyl]morpholine], the inhibition at 1 µM under setting [1] turned out to be 100% and the inhibition at 1 µM under setting [2] was 29%.
`Cc1nc(-c2ccc(N3CCN(C)CC3)cc2)c2cc(CCN3CCOCC3)[nH]c2c1C` [Example B7, 4-[2-[6,7-dimethyl-4-[4-(4-methylpiperazin-1-yl)phenyl]-1H-pyrrolo[3,2-c]pyridin-2-yl]ethyl]morpholine]: the inhibition at 1 µM under setting [2] amounted to 100%.
For the molecule `CCN1CCN(c2ccc(-c3nc(C)c(C)c4[nH]c(CCN5CCOCC5)cc34)cc2)CC1` [Example B8, 4-[2-[4-[4-(4-ethylpiperazin-1-yl)phenyl]-6,7-dimethyl-1H-pyrrolo[3,2-c]pyridin-2-yl]ethyl]morpholine], under setting [2], the inhibition at 1 µM was 93%.
Turning to `Cc1nc(-c2ccc(N3CCN(C(C)C)CC3)cc2)c2cc(CN3CCCCC3)[nH]c2c1C` [Example A39, 4-[4-(4-isopropylpiperazin-1-yl)phenyl]-6,7-dimethyl-2-(1-piperidylmethyl)-1H-pyrrolo[3,2-c]pyridine], under setting [2], the inhibition at 1 µM is 100%.
On to `Cc1cc2c(cc(CCN3CCOCC3)n2C)c(-c2ccc(N3CCN(C(C)C)CC3)cc2)n1` [Example B11, 4-[2-[4-[4-(4-isopropylpiperazin-1-yl)phenyl]-1,6-dimethyl-pyrrolo[3,2-c]pyridin-2-yl]ethyl]morpholine], for which the inhibition at 1 µM under setting [1] stood at 100% and the inhibition at 1 µM under setting [2] worked out at 100%.
As to `CN1CCN(c2ccc(-c3nccc4[nH]c(CN5CCOCC5)cc34)cc2)CC1` [Example A2, 4-[[4-[4-(4-methylpiperazin-1-yl)phenyl]-1H-pyrrolo[3,2-c]pyridin-2-yl]methyl] morpholine], the inhibition at 1 µM under setting [1] amounted to 100% and the inhibition at 1 µM under setting [2] came out at 94%.
With `c1cc2[nH]c(CN3CCOCC3)cc2c(-c2ccc(N3CCNCC3)cc2)n1` [Example A42, 4-[[4-(4-(piperazin-1-yl)phenyl)-1H-pyrrolo[3,2-c]pyridin-2-yl]methyl] morpholine], the inhibition at 1 µM was 84% under setting [1] and 41% under setting [2].
In the case of `CN1CCN(c2ccc(-c3nc(C4CC4)cc4[nH]c(CN5CCOCC5)cc34)cc2)CC1` [Example A34, 4-[[6-cyclopropyl-4-[4-(4-methylpiperazin-1-yl)phenyl]-1H-pyrrolo[3,2-c]pyridin-2-yl]methyl] morpholine], the inhibition at 1 µM under setting [2] was found to be 93%.
Take `CN1CCN(c2cccc(-c3nccc4[nH]c(CN5CCOCC5)cc34)c2)CC1` [Example A61, 4-[[4-[3-(4-methylpiperazin-1-yl)phenyl]-1H-pyrrolo[3,2-c]pyridin-2-yl]methyl]morpholine]: the inhibition at 1 µM is, setting by setting: under setting [1], 100%; under setting [2], 45%.
Consider `COc1cc(-c2nc(C)cc3c2cc(CCN2CCOCC2)n3C)ccc1N1CCN(C(C)C)CC1` [Example B22, 4-[2-[4-[4-(4-isopropylpiperazin-1-yl)-3-methoxy-phenyl]-1,6-dimethyl-pyrrolo[3,2-c]pyridin-2-yl]ethyl]morpholine], for which the inhibition at 1 µM was found to be 100% under setting [1] and 92% under setting [2].
For the molecule `CCN1CCN(c2ccc(-c3nc(C)cc4[nH]c(CN5CCOCC5)cc34)cc2)CC1` [Example A5, 4-[[4-[4-(4-ethylpiperazin-1-yl)phenyl]-6-methyl-1H-pyrrolo[3,2-c]pyridin-2-yl]methyl] morpholine], the inhibition at 1 µM worked out at 100% under setting [1] and 91% under setting [2].
Consider `CN1CCN(c2ccc(-c3nccc4[nH]c(CCCN5CCOCC5)cc34)cc2)CC1` [Example C2, 4-[3-[4-[4-(4-methylpiperazin-1-yl)phenyl]-1H-pyrrolo[3,2-c]pyridin-2-yl]propyl]morpholine], for which the inhibition at 1 µM under setting [2] stood at 100%.
As to `Cc1cc2[nH]c(CCCN3CCOCC3)cc2c(-c2ccc(N3CCN(C(C)C)CC3)cc2)n1` [Example C3, 4-[3-[4-[4-(4-isopropylpiperazin-1-yl)phenyl]-6-methyl-1H-pyrrolo[3,2-c]pyridin-2-yl]propyl]morpholine], the inhibition at 1 µM runs as follows: under setting [1], 100%; under setting [2], 100%.
